Results as given in patent US8936916B2, “Polypeptides for microbial detection” (3M Innovative Properties Company, priority 2008, dated 2015).
Ends that are not written are not given here.

What was measured:
[1] = Permeabilization of DPPC liposomes containing glucose oxidase by phosphorylated dermatoxin (absorbance at 538 nm); assay type: biochemical; details: Positive Control
Protocol: DPPC liposomes containing 5 mg/mL glucose oxidase were prepared as described in Example 2. Glucose oxidase activity was measured in a coupled enzyme reaction with horseradish peroxidase as described in Example 2. The various solutions were quickly added to each of the wells of a microplate using a multichannel pipette and the reactions were started (at T=0 hours) with the addition to the wells of a solution containing glucose and 4-AAP.
The ability of the phosphorylated dermatoxin to open liposomes in the presence of phosphatase was tested by preparing a developing solution as described in Example 2. One hundred-fifty microliters of the developing solution was placed in each well of a 96-well microplate. To each column in the plate was added 20 μL of TES buffer containing one of the following concentrations of unpurified dermatoxin: 3.3 mg/mL, 3.3×10^−1 mg/mL, 3.3×10^−2 mg/mL, 3.3×10^−3 mg/mL, 3.3×10^−4 mg/mL, 3.3×10^−5 mg/mL, 3.3×10^−6 mg/mL, or 3.3×10^−7 mg/mL. Negative control wells contained TES buffer with no dermatoxin. Positive control wells buffer contained TES buffer with Triton X-100. Ten-microliter aliquots of the following concentrations of DPPC liposomes (containing 5 mg/mL glucose oxidase) were added to wells in duplicate rows: 0.1 mg lipid/mL, 0.02 mg lipid/mL, 0.004 mg lipid/mL, or plain buffer. To one of the duplicate rows was added 20 μL of 2.5 mg/mL alkaline phosphatase in TES. The other duplicate row received 20 μL of TES buffer. Thus the final dermatoxin concentration in the well varied from […], and the final lipid concentration in the well ranged from 0.005 mg lipid/mL to 2.0×10^−4 mg lipid/mL.
The absorbance was recorded at 538 nm on a SpectraMax M5 plate reader (Molecular Devices, Sunnyvale, Calif.) after two hours incubation at room temperature, and also after overnight incubation (approximately 18 hours). Since the absorbance of several wells was saturated, the overnight samples were diluted 1:10 with 50 mmol TES and the absorbance of the diluted samples was measured.

[2] = Permeabilization of DPPC liposomes containing glucose oxidase (glucose oxidase/HRP colour reaction, scanned image); assay type: biochemical; details: for Relative glucose oxidase activity (integrated digital values): DPPC; for Color apparent in the well: 30 minutes at room temperature
Protocol: (§1) The formation of a pore allows glucose into the liposome where it reacts with glucose oxidase to generate hydrogen peroxide. The hydrogen peroxide reacts with HRP, 4-AAP and TOOS (all outside the liposome) to generate an intense purple color.
(§2) The ability of the phosphorylated phylloxin to open liposomes in the presence of phosphatase was tested by preparing a developing solution of 0.5 mg/mL TOOS (3-(N-Ethyl-3-methylanilino)-2-hydroxypropanesulfonic acid sodium salt) (Sigma-Aldrich, St. Louis, Mo.), 1.0 mg/mL 4-AAP (4-amino-antipyrene) (Sigma-Aldrich), 12.5 mg/mL glucose and 0.0001 mg/mL HRP (horseradish peroxidase) (Pierce Biotechnology, Rockford, Ill.) in 50 mM TES.
(§3) 200 μL of this solution was placed in one well of 96-well plate containing 10 μL (0.004 mg/mL) of a DPPC liposome suspension. A second well was prepared similarly and 10 μL (0.3 mg/mL) of phylloxin solution in TES was also added. A third well was prepared similar to the second well. Alkaline phosphatase (10 μL at 2.5 mg/mL in TES) was added to the third well to a final concentration of 0.11 mg/mL. A similar set of wells was prepared with DOPC/cholesterol liposomes at the same concentration.
(§4) A weaker color was apparent in the well with DPPC liposomes, phylloxin and phosphatase, and weaker again in the well with DPPC liposomes and phylloxin. The remaining wells were essentially colorless. The image was recorded on an HP scanner and analyzed using an AlphaImager (Alpha Innotech, San Leandro, Calif.). The integrated digital values at 30 minutes are shown in Table 1 below, and at two hours in Table 2.

[3] = Permeabilization of DOPC/cholesterol liposomes containing glucose oxidase (glucose oxidase/HRP colour reaction, scanned image); assay type: biochemical; details: for Relative glucose oxidase activity (integrated digital values): DOPC/Cholesterol
Protocol: as §1, §2, §3, §4

[4] = as the pH drops from 7; cited from earlier work
[5] = 2-hour incubation, liposome + peptide
[6] = 2-hour incubation, liposome + peptide + phosphatase
[7] = 30-minute incubation, liposome + peptide
[8] = 30-minute incubation, liposome + peptide + phosphatase

Triton X-100 [Positive Control, reference compound]
Absorbance at 538 nm (cytolytic peptide activity) ([1]; 2 hrs, lipid conc. 0, with phosphatase): 2.272 absorbance units | Absorbance at 538 nm (cytolytic peptide activity) ([1]; 2 hrs, lipid conc. 0, without phosphatase): 0.123 absorbance units | Absorbance at 538 nm (cytolytic peptide activity) ([1]; 2 hrs, lipid conc. 0.004, with phosphatase): 0.132 absorbance units | Absorbance at 538 nm (cytolytic peptide activity) ([1]; 2 hrs, lipid conc. 0.004, without phosphatase): 0.210 absorbance units | Absorbance at 538 nm (cytolytic peptide activity) ([1]; 2 hrs, lipid conc. 0.02, with phosphatase): 0.296 absorbance units | Absorbance at 538 nm (cytolytic peptide activity) ([1]; 2 hrs, lipid conc. 0.02, without phosphatase): 0.602 absorbance units | Absorbance at 538 nm (cytolytic peptide activity) ([1]; 2 hrs, lipid conc. 0.1, with phosphatase): 0.557 absorbance units | Absorbance at 538 nm (cytolytic peptide activity) ([1]; 2 hrs, lipid conc. 0.1, without phosphatase): 2.220 absorbance units | Absorbance at 538 nm (cytolytic peptide activity) ([1]; 18 hrs (d), 1:10-diluted sample, lipid conc. 0, with phosphatase): 1.064 absorbance units | Absorbance at 538 nm (cytolytic peptide activity) ([1]; 18 hrs (d), 1:10-diluted sample, lipid conc. 0, without phosphatase): 0.055 absorbance units | Absorbance at 538 nm (cytolytic peptide activity) ([1]; 18 hrs (d), 1:10-diluted sample, lipid conc. 0.004, with phosphatase): 0.056 absorbance units | Absorbance at 538 nm (cytolytic peptide activity) ([1]; 18 hrs (d), 1:10-diluted sample, lipid conc. 0.004, without phosphatase): 0.097 absorbance units | Absorbance at 538 nm (cytolytic peptide activity) ([1]; 18 hrs (d), 1:10-diluted sample, lipid conc. 0.02, with phosphatase): 0.094 absorbance units | Absorbance at 538 nm (cytolytic peptide activity) ([1]; 18 hrs (d), 1:10-diluted sample, lipid conc. 0.02, without phosphatase): 0.274 absorbance units | Absorbance at 538 nm (cytolytic peptide activity) ([1]; 18 hrs (d), 1:10-diluted sample, lipid conc. 0.1, with phosphatase): 0.252 absorbance units | Absorbance at 538 nm (cytolytic peptide activity) ([1]; 18 hrs (d), 1:10-diluted sample, lipid conc. 0.1, without phosphatase): 1.018 absorbance units | Absorbance at 538 nm (cytolytic peptide activity) ([1]; 18 hrs, lipid conc. 0, with phosphatase): 4.000 absorbance units | Absorbance at 538 nm (cytolytic peptide activity) ([1]; 18 hrs, lipid conc. 0, without phosphatase): 0.158 absorbance units | Absorbance at 538 nm (cytolytic peptide activity) ([1]; 18 hrs, lipid conc. 0.004, with phosphatase): 0.158 absorbance units | Absorbance at 538 nm (cytolytic peptide activity) ([1]; 18 hrs, lipid conc. 0.004, without phosphatase): 0.524 absorbance units | Absorbance at 538 nm (cytolytic peptide activity) ([1]; 18 hrs, lipid conc. 0.02, with phosphatase): 0.524 absorbance units | Absorbance at 538 nm (cytolytic peptide activity) ([1]; 18 hrs, lipid conc. 0.02, without phosphatase): 2.043 absorbance units | Absorbance at 538 nm (cytolytic peptide activity) ([1]; 18 hrs, lipid conc. 0.1, with phosphatase): 2.043 absorbance units

GWMSKIASGIGTFLSGMQQ (GWMSKIASGIGTFLSGMQQ-NH2; not fully specified (residues 4, 8, 12, 15, N-terminus); also: phosphorylated) [Tetraphosphorylated Phylloxin, fully phosphorylated phylloxin made by Fmoc synthesis on Rink amide resin, HPLC purified]
Relative glucose oxidase activity (integrated digital values) [2, 5]: 173670 | Relative glucose oxidase activity (integrated digital values) [2, 6]: 217620 | Relative glucose oxidase activity (integrated digital values) [2, 7]: 84996 | Relative glucose oxidase activity (integrated digital values) [2, 8]: 97588 | Color apparent in the well ([2]; DPPC liposomes and phylloxin, no phosphatase): weaker again | Color apparent in the well ([2]; DPPC liposomes, phylloxin and phosphatase): weaker color | Phosphatase-dependent opening of liposomes ([2]; DPPC liposomes, with versus without alkaline phosphatase): still an effect, but it is not so pronounced | Relative glucose oxidase activity (integrated digital values) [3, 5]: 128550 | Relative glucose oxidase activity (integrated digital values) [3, 6]: 299950 | Relative glucose oxidase activity (integrated digital values) [3, 7]: 67680 | Relative glucose oxidase activity (integrated digital values) [3, 8]: 184416 | Color apparent in the well ([3]; 30 minutes at room temperature, DOPC/cholesterol liposomes, phylloxin and phosphatase): dark purple color | Opening of liposomes ([3]; DOPC/cholesterol liposomes, in the absence of alkaline phosphatase): little effect | Opening of liposomes ([3]; DOPC/cholesterol liposomes, in the presence of alkaline phosphatase): rapidly opens liposomes

GALA
pH at which the cytolytic peptide becomes activated [4]: about 5.0
